Paper PMC5974403, “The novel histone de acetylase 6 inhibitor, MPT0G211, ameliorates tau phosphorylation and cognitive deficits in an Alzheimer’s disease model” (Cell Death & Disease, 2018)
Entries after “also recorded” stand apart in the source; their conditions may differ. Read-outs that look alike come from different tables or passages of the source.

Legend:
Neuro-2a cells [1] = test: Western blot of acetyl-α-tubulin and acetyl-histone, Neuro-2a cells; assay type: cell-based, mouse; settings: 0.1 to 1 μM, 24 h
Experimental: (§1) Cell viabilities were determined by MTT assay. The results represent the mean ± SEM of three independent experiments; *p < 0.05, **p < 0.01 and ***p < 0.001 compared with controls TEXT PRINTED IN THE PICTURE: (A) no label printed: M.W. 293.32
(§2) Cells (1 × 10^6) were incubated for 10 min at 4 °C in lysis buffer (20 mM HEPES, pH 7.4, 2 mM EGTA, 50 mM β-glycerophosphate, 0.1% Triton X-100, 10% glycerol, 1 mM dithiothreitol, 1 μg/mL leupeptin, 5 μg/mL aprotinin, 1 mM phenylmethylsulfonyl fluoride, and 1 mM sodium orthovanadate), scraped from the plate, incubated on ice for 10 min, and centrifuged at 17,000 × g for 30 min at 4 °C. Protein samples (30 μg) were electrophoresed through sodium dodecyl sulfate-polyacrylamide gels (SDS-PAGE) and transferred onto a nitrocellulose membrane, which was then blocked by incubation for 30 min at room temperature with 5% fat-free milk in PBS. Immunoblotting was performed by overnight incubation at 4 °C with primary antibodies in PBS, followed by incubation for 1 h at room temperature with HRP-conjugated secondary antibodies. Bound antibodies were measured using ECL reagent (T-Pro Biotechnology, New Taipei City, Taiwan), and the membrane was placed on a photographic film. Cell lysates (30 μg) were incubated with antibodies (1 μg each) and protein A/G agarose beads overnight at 4 °C. The precipitated beads were washed three times with 1 mL of ice-cold cell lysis buffer, and bound immune complexes were separated using 8% SDS-PAGE, followed by immunoblotting using the indicated primary antibody.

SH-SY5Y cells [2] = test: MTT cell viability, SH-SY5Y; assay type: cell-based, human; settings: 24 h, 0.01–1 μM
Experimental: as §1

Neuro-2a cells [3] = test: Western blot of tau phosphorylation and kinases in Neuro-2a cells transfected with pCAX APP 695 and pRK5-EGFP-Tau P301L; assay type: cell-based, mouse; settings: 0.1 μM, 24 h
Experimental: Images represented magnification at ×100. b Cells were transfected with pCAX APP 695 for 24 h, harvested, and cell lysates were subjected to Western blotting. c, d SH-SY5Y and Neuro-2a cells were transfected with pCAX APP 695 and/or pRK5-EGFP-Tau P301L for 24 h. Cell lysates were prepared for western blot analysis of the indicated proteins. e, f Cells were transfected with pCAX APP 695 and pRK5-EGFP-Tau P301L for 24 h and were then incubated with or without MPT0G211 or ACY-1215 (0.1 μM) for another 24 h. Cell lysates were subjected to western blot analysis using the indicated antibodies. Results are presented as the mean ± SEM from three independent experiments. **p < 0.01, ***p < 0.001 compared with the control group; ^#p < 0.05, ^##p < 0.01 compared with the indicated groups
Cell lysates were prepared for western blot analysis of the indicated proteins. Results are presented as the mean ± SEM. *p < 0.05, **p < 0.01, and ***p < 0.001 compared with the control group; ^#p < 0.05, ^##p < 0.01, ^###p < 0.001 compared with the indicated groups
Cells were seeded 1 day before transfection. The plasmids pCAX FLAG APP and pRK5-EGFP-Tau P301L (1 μg each) and 1 μL of TurboFect transfection reagent were mixed for 20 min at room temperature, added to the cells, and the suspensions were incubated for 24 h at 37 °C in a humidified atmosphere containing 5% CO2.
as §2

SH-SY5Y cells [4] = test: Immunoprecipitation/immunoblot of HDAC6, acetyl-lysine, ubiquitin in transfected SH-SY5Y cells; assay type: cell-based, human; settings: 24 h
Experimental: Fig. 4 MPT0G211 increased the ubiquitination of p-tau and degradation by proteasome. a, b SH-SY5Y and Neuro-2a cells were transfected for 24 h with pCAX APP 695 and pRK5-EGFP-Tau P301L and incubated with MPT0G211 or ACY-1215 (0.1 μM) for another 24 h, after which the cell lysates were immunoprecipitated with antibodies against HDAC6, acetyl-lysine (a) or ubiquitin (b) and were subjected to immunoblotting. c Cells were transfected with pCAX APP 695 and pRK5-EGFP-Tau P301L for 24 h and were then incubated with MPT0G211 (0.01–1 μM) for another 24 h. Immunoblots reveal polyubiquitin complexes. d pCAX APP 695 or pRK5-EGFP-Tau P301L were used to transfect the cells for 24 h, incubated with or without MG132 (1 μM) for 30 min, and were then treated with MPT0G211 or ACY-1215 (0.1 μM) for another 24 h. Cell lysates were prepared for western blot analysis of the indicated proteins
as §2

3×Tg-AD mice = test: Immunohistochemistry and western blot of brain (hippocampal CA1) of 3×Tg-AD mice; assay type: in vivo, mouse; settings: 3×Tg-AD mice, 50, 100 mg/kg oral, 3 months
Text: Red arrowheads indicate phosphorylated-tau proteins. Scale bar = 25 μm. Data represent the mean ± SEM. *p < 0.05, **p < 0.01, and ***p < 0.001 compared with the basal or control group; ^#p < 0.05, ^##p < 0.01, and ^###p < 0.001 compared with the vehicle-treated group

[5] = BBB crossing assay: brain and plasma concentrations by LC-MS/MS after oral administration; assay type: in vivo, rat; settings: rats
Experimental: Successful crossing of the BBB by therapeutic drugs is essential in the treatment of CNS disorders. To explore whether MPT0G211 can penetrate into the brain, single oral administration of MPT0G211 was performed, and plasma and brain samples were collected and analyzed by liquid chromatography tandem mass spectrometry (LC-MS/MS) to obtain brain/plasma ratios.
This assay was performed by Eurofins Scientific. Briefly, SD rats weighing 200–300 g were provided by BioLasco Taiwan (under the license of Charles River Laboratories). Rats were sedated under general inhalant anesthesia (3% isoflurane) for blood collection using cardiac puncture 60 and 180 min after oral administration of the test compound. Aliquots of blood were gently mixed with lithium heparin, kept on ice, and centrifuged at 2500 × g for 15 min at 4 °C. The plasma was then harvested and stored at −70 °C. After blood sampling, rats were decapitated, and the entire brain was quickly removed and rinsed with cold saline (0.9% NaCl, w/v). The surface vasculature was ruptured, blotted with dry gauze, weighed, and stored on ice within 1 h of collection. Each brain was homogenized in 3 mL cold PBS, pH 7.4, for 10 s on ice, and centrifuged at 5400 × g for 15 min at 4 °C. Supernatants were precipitated using acetonitrile precipitation and subjected to high-performance LC-MS/MS.

O=C(NO)c1ccc(CNc2cccc3cccnc23)cc1 [MPT0G211, N-hydroxy-4-((quinolin-8-ylamino)methyl)benzamide]
acetylation of histones (Neuro-2a cells [1]): without affecting the acetylation of histones
acetylation of α-tubulin (Neuro-2a cells [1]): concentration-dependently increased
cytotoxicity (MTT cell viability) (SH-SY5Y cells [2]): did not result in any significant cytotoxicity
phosphorylation of tau Ser396 (Neuro-2a cells [3]; Neuro-2a transfected hAPP 695 + hTau P301L): significantly inhibited; also recorded: significantly attenuated
CDK5, p25, or p35 expression (Neuro-2a cells [3]; Neuro-2a transfected): no marked changes
phospho-GSK3β on Ser9 (Neuro-2a cells [3]; Neuro-2a transfected): significant phospho-GSK3β increases
phospho-GSK3β on Ser216 (Neuro-2a cells [3]; Neuro-2a transfected): a decrease
phosphorylation of tau Ser404 (Neuro-2a cells [3]; Neuro-2a transfected): significantly attenuated
coimmunoprecipitation of ubiquitin with p-tau (Ser396) (SH-SY5Y cells [4]; 0.1 μM): clearly increased
HDAC6/Hsp90 binding (SH-SY5Y cells [4]; 0.1 μM, IP): downregulation
acetylation of Hsp90 (SH-SY5Y cells [4]; 0.1 μM, IP): clearly enhanced
level of polyubiquitinated proteins (SH-SY5Y cells [4]; 0.01–1 μM): significantly accumulated
acetyl-α-tubulin accumulation in brain (3×Tg-AD mice): increased
p-Tau (S396) expression in brain (3×Tg-AD mice; hippocampal CA1): significantly downregulated
p-Tau (S404) expression in brain (3×Tg-AD mice; hippocampal CA1): significantly downregulated
Kp at 3 h ([5]; SD, rat, brain/plasma, PO 50 mg/kg, 3 h, read-out: Brain/plasma ratio): 0.9
concentration at 1 h ([5]; SD, rat, brain, PO 50 mg/kg, 1 h, read-out: Brain concentration): 56.9 ± 3.4 ng/g
concentration at 3 h ([5]; SD, rat, brain, PO 50 mg/kg, 3 h, read-out: Brain concentration): 11 ± 0.1 ng/g
Kp at 1 h ([5]; SD, rat, in vivo, PO 50 mg/kg, 1 h, read-out: Brain/plasma ratio): 1.01
concentration at 1 h ([5]; SD, rat, plasma, PO 50 mg/kg, 1 h, read-out: Plasma concentration): 56.4 ± 4 ng/g
concentration at 3 h ([5]; SD, rat, plasma, PO 50 mg/kg, 3 h, read-out: Plasma concentration): 12.2 ± 1.4 ng/g
BBB penetration ([5]; single oral administration): can penetrate the BBB
time for which concentrations were detected in the brain ([5]; single oral administration): at least 3 h
